Where two headings read alike, the source gives them in different places.
Target: human μ-opiate receptor (Homo sapiens, UniProt P35372)
Test: Affinity for the human μ-opiate receptor ([3H]-naloxone displacement, SPA, CHO-K1 membrane preparation)
Format: binding
Settings: for inhibition at 1 µM: read-out: μ-Opioid receptor, % inhibition [1 μM]; for Ki: read-out: μ-Opioid receptor, Ki
[1] = 1 μM test substance, inhibition of specific [3H]-naloxone binding

Chain of human μ-opiate receptor (P35372 whole entry): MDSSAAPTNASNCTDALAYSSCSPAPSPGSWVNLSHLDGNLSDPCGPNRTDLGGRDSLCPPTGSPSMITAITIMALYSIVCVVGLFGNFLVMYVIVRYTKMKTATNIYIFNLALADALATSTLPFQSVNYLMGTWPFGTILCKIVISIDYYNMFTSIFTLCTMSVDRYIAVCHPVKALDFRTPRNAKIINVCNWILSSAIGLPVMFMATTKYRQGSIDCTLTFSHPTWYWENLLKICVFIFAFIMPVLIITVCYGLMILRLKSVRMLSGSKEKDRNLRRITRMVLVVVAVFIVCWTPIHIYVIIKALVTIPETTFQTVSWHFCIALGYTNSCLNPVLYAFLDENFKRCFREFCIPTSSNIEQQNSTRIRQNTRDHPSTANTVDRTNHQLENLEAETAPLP

Row | Compound | Ki [µM] | inhibition at 1 µM [%] | μ-Opioid receptor, % inhibition [1 μM] (1 µM) [%] | further results
1 | 4-((dimethylamino)(phenyl)methyl)-1-(4-fluoro-3-methylphenyl)cyclohexanol [compound 150] |  |  |  | μ-Opioid receptor, % inhibition [1 μM] [1]: 74%
2 | COC(=O)C(Cc1c[nH]c2ccccc12)NC1CCC(C(c2ccccc2)N(C)C)CC1 (single isomer, unassigned) [compound 174, methyl 2-(4-((dimethylamino)(phenyl)methyl)cyclohexylamino)-3-(1H-indol-3-yl)propanoate] | 0.0049 |  |  | inhibition at 1 µM [1]: 95%
3 | COC(=O)C(Cc1c[nH]c2ccccc12)NC1CCC(C(c2ccccc2)N(C)C)CC1 (single isomer, unassigned) [compound 175, methyl 2-(4-((dimethylamino)(phenyl)methyl)cyclohexylamino)-3-(1H-indol-3-yl)propanoate] | 0.011 |  |  | μ-Opioid receptor, % inhibition [1 μM] (1 μM test substance, inhibition of specific [3H]-naloxone binding, 1 µM): 86%
4 | CN(C)C(CCc1ccccc1)C1CCC(NC(=O)c2ccc(F)c(C(F)(F)F)c2)CC1 (single isomer, unassigned) [compound 210, N-[4-(1-dimethylamino-3-phenyl-propyl)-cyclohexyl]-4-fluoro-3-trifluoromethyl-benzamide] | 0.024 | 92 |  | 
5 | CC(Oc1ccccc1)C(=O)NC1CCC(C(c2cccc(F)c2)N(C)C)CC1 (single isomer, unassigned) [compound 215, N-{4-[dimethylamino-(3-fluoro-phenyl)-methyl]-cyclohexyl}-2-phenoxy-propionamide] | 0.034 | 90 |  | 
6 | CC(Oc1ccccc1)C(=O)NC1CCC(C(c2cccc(F)c2)N(C)C)CC1 (single isomer, unassigned) [compound 222, N-{4-[dimethylamino-(3-fluoro-phenyl)-methyl]-cyclohexyl}-2-phenoxy-propionamide] | 0.02 |  | 88 | 
7 | CN(C)C(CCc1ccccc1)C1CCC(NC(=O)c2ccc(F)c(C(F)(F)F)c2)CC1 (single isomer, unassigned) [compound 227, N-[4-(1-dimethylamino-3-phenyl-propyl)-cyclohexyl]-4-fluoro-3-trifluoromethyl-benzamide] | 0.058 |  | 87 | 
8 | CN(C)C(c1ccccc1)C1CCC(NC(=O)CC(C)(C)C)CC1 (single isomer, unassigned) [compound 228, N-[4-(dimethylamino-phenyl-methyl)-cyclohexyl]-3,3-dimethyl-butyramide] | 0.019 | 87 |  | 
9 | CCC(C(=O)NC1CCC(C(c2ccccc2)N(C)C)CC1)c1ccccc1 (single isomer, unassigned) [compound 234, N-[4-(dimethylamino-phenyl-methyl)-cyclohexyl]-2-phenyl-butyramide] | 0.046 | 84 |  | 
10 | CN(C)C(c1ccccc1)C1CCC(NC(=O)c2cccs2)CC1 (single isomer, unassigned) [compound 245, thiophene-2-carboxylic acid [4-(dimethylamino-phenyl-methyl)-cyclohexyl]-amide] | 0.066 | 82 |  | 
11 | CN(C)C(c1ccccc1)C1CCC(NC(=O)CC(C)(C)C)CC1 (single isomer, unassigned) [compound 246, N-[4-(dimethylamino-phenyl-methyl)-cyclohexyl]-3,3-dimethyl-butyramide] | 0.039 |  | 82 | 
12 | CN(C)C(c1ccccc1)C1CCC(NC(=O)c2cccs2)CC1 (single isomer, unassigned) [compound 249, thiophene-2-carboxylic acid [4-(dimethylamino-phenyl-methyl)-cyclohexyl]-amide] | 0.064 |  | 81 | 
13 | CCC(C(=O)NC1CCC(C(c2ccccc2)N(C)C)CC1)c1ccccc1 (single isomer, unassigned) [compound 250, N-[4-(dimethylamino-phenyl-methyl)-cyclohexyl]-2-phenyl-butyramide] | 0.036 |  | 81 | 
14 | CN(C)C(c1ccccc1)C1CCC(CNC(=O)c2ccc(F)c(F)c2)CC1 (single isomer, unassigned) [compound 294, N-[4-(dimethylamino-phenyl-methyl)-cyclohexylmethyl]-3,4-difluoro-benzamide] | 0.0083 | 101 |  | 
15 | Cc1ccccc1C(=O)NCC1CCC(C(c2ccccc2)N(C)C)CC1 (single isomer, unassigned) [compound 317, N-[4-(dimethylamino-phenyl-methyl)-cyclohexylmethyl]-2-methyl-benzamide] | 0.029 | 95 |  | 
16 | CN(C)C(c1cccc(F)c1)C1CCC(CNC(=O)Cc2ccccc2)CC1 (single isomer, unassigned) [compound 319, N-{4-[dimethylamino-(3-fluoro-phenyl)-methyl]-cyclohexylmethyl}-2-phenyl-acetamide] | 0.015 | 95 |  | 

Row | Compound | Ki [µM] | inhibition at 1 µM [%] | μ-Opioid receptor, % inhibition [1 μM] (1 µM) [%] | further results
17 | Cc1ccccc1C(=O)NCC1CCC(C(c2ccccc2)N(C)C)CC1 (single isomer, unassigned) [compound 325, N-[4-(dimethylamino-phenyl-methyl)-cyclohexylmethyl]-2-methyl-benzamide] | 0.034 |  | 94 | 
18 | CN(C)C(c1ccccc1)C1CCC(CNC(=O)c2cccc(C(F)(F)F)c2)CC1 (single isomer, unassigned) [compound 326, N-[4-(dimethylamino-phenyl-methyl)-cyclohexylmethyl]-3-trifluoromethyl-benzamide] | 0.011 | 94 |  | 
19 | CC(Oc1ccccc1)C(=O)NCC1CCC(C(c2cccc(F)c2)N(C)C)CC1 (single isomer, unassigned) [compound 332, N-{4-[dimethylamino-(3-fluoro-phenyl)-methyl]-cyclohexylmethyl}-2-phenoxy-propionamide] | 0.02 | 93 |  | 
20 | CN(C)C(c1ccccc1)C1CCC(CNC(=O)c2cccc(C(F)(F)F)c2)CC1 (single isomer, unassigned) [compound 333, N-[4-(dimethylamino-phenyl-methyl)-cyclohexylmethyl]-3-trifluoromethyl-benzamide] | 0.017 |  | 92 | 
21 | CN(C)C(c1cccc(F)c1)C1CCC(CNC(=O)c2cccs2)CC1 (single isomer, unassigned) [compound 334, thiophene-2-carboxylic acid {4-[dimethylamino-(3-fluoro-phenyl)-methyl]-cyclohexylmethyl}-amide] | 0.062 | 92 |  | 
22 | CN(C)C(c1ccc(Cl)cc1)C1CCC(CNC(=O)c2csc3ccccc23)CC1 (single isomer, unassigned) [compound 336, benzo[b]thiophene-3-carboxylic acid {4-[(4-chloro-phenyl)-dimethylamino-methyl]-cyclohexylmethyl}-amide] | 0.039 | 92 |  | 
23 | CN(C)C(c1cccc(F)c1)C1CCC(CNC(=O)c2cccs2)CC1 (single isomer, unassigned) [compound 340, thiophene-2-carboxylic acid {4-[dimethylamino-(3-fluoro-phenyl)-methyl]-cyclohexylmethyl}-amide] | 0.055 |  | 91 | 
24 | CC(Oc1ccccc1)C(=O)NCC1CCC(C(c2cccc(F)c2)N(C)C)CC1 (single isomer, unassigned) [compound 341, N-{4-[dimethylamino-(3-fluoro-phenyl)-methyl]-cyclohexylmethyl}-2-phenoxy-propionamide] | 0.013 |  |  | 
25 | CCC(C)C(=O)NCC1CCC(C(c2cccc(F)c2)N(C)C)CC1 (single isomer, unassigned) [compound 342, N-{4-[dimethylamino-(3-fluoro-phenyl)-methyl]-cyclohexylmethyl}-2-methyl-butyramide] | 0.028 | 90 |  | 
26 | CN(C)C(c1cccc(F)c1)C1CCC(CNC(=O)Cc2ccccc2)CC1 (single isomer, unassigned) [compound 348, N-{4-[dimethylamino-(3-fluoro-phenyl)-methyl]-cyclohexylmethyl}-2-phenyl-acetamide] | 0.03 |  | 89 | 
27 | CN(C)C(c1ccccc1)C1CCC(CNC(=O)c2ccc(F)c(F)c2)CC1 (single isomer, unassigned) [compound 357, N-[4-(dimethylamino-phenyl-methyl)-cyclohexylmethyl]-3,4-difluoro-benzamide] | 0.06 |  | 86 | 
28 | CN(C)C(c1ccccc1)C1CCC(CNC(=O)c2cccnc2Oc2ccc(Cl)cc2)CC1 (single isomer, unassigned) [compound 360, 2-(4-chloro-phenoxy)-N-[4-(dimethylamino-phenyl-methyl)-cyclohexylmethyl]-nicotinamide] | 0.035 | 86 |  | 
29 | CN(C)C(c1ccc(Cl)cc1)C1CCC(CNC(=O)c2csc3ccccc23)CC1 (single isomer, unassigned) [compound 372, benzo[b]thiophene-3-carboxylic acid {4-[(4-chloro-phenyl)-dimethylamino-methyl]-cyclohexylmethyl}-amide] | 0.033 |  | 84 | 
30 | CCC(C)C(=O)NCC1CCC(C(c2cccc(F)c2)N(C)C)CC1 (single isomer, unassigned) [compound 378, N-{4-[dimethylamino-(3-fluoro-phenyl)-methyl]-cyclohexylmethyl}-2-methyl-butyramide] | 0.055 |  | 83 | 
31 | CN(C)C(c1ccccc1)C1CCC(CNC(=O)c2cccnc2Oc2ccc(Cl)cc2)CC1 (single isomer, unassigned) [compound 383, 2-(4-chloro-phenoxy)-N-[4-(dimethylamino-phenyl-methyl)-cyclohexylmethyl]-nicotinamide] | 0.086 |  | 83 | 
